Measurements from the supplement of paper PMC10307832.

Tests used:
Assay in all cases: relative viability (nuclei count vs DMSO), 5 days (fraction); higher = more cells survive
Axitinib + Trametinib = compound: CNC(=O)c1ccccc1Sc1ccc2c(/C=C/c3ccccn3)n[nH]c2c1 [Axitinib] + CC(=O)Nc1cccc(-n2c(=O)n(C3CC3)c(=O)c3c(Nc4ccc(I)cc4F)n(C)c(=O)c(C)c32)c1 [Trametinib] (partner 0.02 µM)
In short: (§1)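 Lung cancer cell lines in 1536-well plates got either a single drug or a fixed anchor-drug dose together with five library-drug doses (not always all listed) in √10 steps, by pin tool, on the day after seeding. Nuclei were counted after 5 days, and relative viability is the treated-to-vehicle ratio of nuclei counts. Values are medians of duplicate plates.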

[1] = compound: CC1=CC=C(C=C1)C(=O)CN2C3=C(CCCC3)SC2=N [Pifithrin_alpha] + Cc1cc(Nc2cc(N3CCN(C)CC3)nc(Sc3ccc(NC(=O)C4CC4)cc3)n2)n[nH]1 [Tozasertib] (partner 0.1 µM)
In short: as §1

Axitinib + Pemetrexed = compound: CNC(=O)c1ccccc1Sc1ccc2c(/C=C/c3ccccn3)n[nH]c2c1 [Axitinib] + Nc1nc2[nH]cc(CCc3ccc(C(=O)N[C@@H](CCC(=O)O)C(=O)O)cc3)c2c(=O)[nH]1 [Pemetrexed] (partner 0.2 µM)
In short: as §1

Bemcentinib + Dasatinib = compound: Nc1nc(Nc2ccc3c(c2)CC[C@@H](N2CCCC2)CC3)nn1-c1cc2c(nn1)-c1ccccc1CCC2 [Bemcentinib] + Cc1nc(Nc2ncc(C(=O)Nc3c(C)cccc3Cl)s2)cc(N2CCN(CCO)CC2)n1 [Dasatinib] (partner 0.075 µM)
In short: as §1

| Cell Line | relative viability (Axitinib + Trametinib; first compound 0.005 µM) | relative viability (Axitinib + Trametinib; first compound 0.01581 µM) | relative viability (Axitinib + Trametinib; first compound 0.05 µM) | relative viability (Axitinib + Trametinib; first compound 0.1581 µM) | relative viability (Axitinib + Trametinib; first compound 0.5 µM) | relative viability ([1]; first compound 1 µM) | relative viability ([1]; first compound 3.162 µM) | relative viability ([1]; first compound 10 µM) | relative viability ([1]; first compound 31.62 µM) | relative viability ([1]; first compound 100 µM) | relative viability (Axitinib + Pemetrexed; first compound 0.005 µM) | relative viability (Axitinib + Pemetrexed; first compound 0.01581 µM) | relative viability (Axitinib + Pemetrexed; first compound 0.05 µM) | relative viability (Axitinib + Pemetrexed; first compound 0.1581 µM) | relative viability (Axitinib + Pemetrexed; first compound 0.5 µM) | relative viability (Bemcentinib + Dasatinib; first compound 0.04 µM) | relative viability (Bemcentinib + Dasatinib; first compound 0.1265 µM) | relative viability (Bemcentinib + Dasatinib; first compound 0.4 µM) | relative viability (Bemcentinib + Dasatinib; first compound 1.265 µM) | relative viability (Bemcentinib + Dasatinib; first compound 4 µM) |
| --- | --- | --- | --- | --- | --- | --- | --- | --- | --- | --- | --- | --- | --- | --- | --- | --- | --- | --- | --- | --- |
| 201T | 0.715 | 0.682 | 0.711 | 0.713 | 0.732 | 0.991 | 0.679 | 0.729 | 0.57 | 0.638 | 0.379 | 0.3 | 0.294 | 0.302 | 0.332 | 0.559 | 0.676 | 0.591 | 0.613 | 0.57 |
| A-427 | 0.89 | 0.711 | 0.758 | 0.761 | 0.879 | 0.202 | 0.18 | 0.183 | 0.203 | 0.2 | 1.11 | 1.1 | 1.01 | 0.954 | 1.14 | 0.719 | 0.737 | 0.68 | 0.707 | 0.691 |
| ABC-1 | – | – | – | – | – | 0.204 | 0.167 | 0.188 | 0.229 | 0.173 | – | – | – | – | – | 0.423 | 0.512 | 0.59 | 0.553 | 0.667 |
| BEN | 1.33 | 1.04 | 0.885 | 0.992 | 1.01 | – | 0.684 | 0.534 | 0.443 | 0.514 | 0.73 | 0.858 | 0.801 | 0.859 | 0.751 | 0.272 | 0.37 | 0.317 | 0.22 | 0.241 |
| CAL-12T | 0.401 | 0.311 | 0.336 | 0.288 | 0.338 | 0.348 | 0.22 | 0.234 | – | 0.226 | 1.43 | 1.35 | 1.28 | 1.22 | 1.24 | 0.366 | 0.356 | 0.398 | 0.45 | 0.555 |
| COR-L23 | 0.693 | 0.623 | 0.785 | 0.527 | 0.656 | 0.168 | 0.15 | 0.152 | – | 0.13 | 0.197 | 0.201 | 0.194 | 0.192 | 0.21 | 0.414 | 0.531 | 0.55 | 0.359 | 0.482 |
| COR-L 105 | 0.478 | 0.414 | 0.446 | 0.452 | 0.466 | 0.346 | 0.358 | 0.368 | 0.31 | 0.316 | 1.14 | 1.09 | 1.05 | 1.25 | 1.26 | 0.317 | 0.328 | 0.329 | 0.404 | 0.272 |
| ChaGo-K-1 | 0.872 | 0.874 | 0.902 | 0.858 | 0.887 | 0.218 | 0.219 | 0.204 | 0.226 | 0.192 | 0.27 | 0.262 | 0.252 | 0.267 | 0.274 | 0.591 | 0.614 | 0.636 | 0.496 | 0.481 |
| EKVX | 0.286 | 0.29 | 0.347 | 0.323 | 0.406 | 0.532 | – | 0.349 | 0.245 | 0.349 | 0.428 | 0.376 | 0.457 | 0.417 | 0.398 | 0.556 | 0.528 | 0.592 | 0.628 | 0.588 |
